In brackets after ≈: the same amount, converted by molar mass.
What was measured:
[1] = target: T1, Leucine-rich repeat serine/threonine-protein kinase 2 (Homo sapiens, UniProt Q5S007); test: Inhibition of recombinant His6-Tev-LRRK2 (1326 to 2527 residues) (unknown origin) using LRRKtide as substrate preincubated for 30 mins followed by substrate addition and measured after 2 hrs in presence of ATP by TR-FRET assay
[2] = target: T1, Leucine-rich repeat serine/threonine-protein kinase 2; test: Inhibition of recombinant full-length LRRK2 (unknown origin) expressed in SH-SY5Y cells assessed as reduction in Ser935 phosphorylation after 60 mins by Alpha Screen assay; assay type: cell-based
[3] = Metabolic stability in human liver microsomes assessed as intrinsic clearance; assay type: ADME, Microsome
[4] = Solubility of the compound in FaSSIF measured after 4 hrs; assay type: physicochemical
[5] = Lipophilicity, logD of compound at pH 7.4; details: buffer
[6] = Permeability ratio across apical side to basolateral side in MDCK2 cells transfected with Bacmam virus containing human BCRP at 3 uM after 90 mins in presence or absence of GF120918 by transwell assay; assay type: ADME, cell-based, Canis lupus familiaris; details: dog, mdck-ii, 1.5 h
[7] = Dose normalized AUC (0 to t) in Han-Wistar rat blood at 2 mg/kg, po measured up to 7 hrs by UPLC-MS/MS analysis; assay type: ADME, organism-based; details: in vivo
[8] = Dose normalized AUC (0 to t) in Han-Wistar rat brain at 2 mg/kg, po measured up to 7 hrs by UPLC-MS/MS analysis; assay type: ADME, organism-based; details: in vivo
[9] = Ratio of total drug concentration in brain to blood in Han-Wistar rat at 2 mg/kg, po; assay type: ADME, organism-based
[10] = Unbound fraction in Han-Wistar rat brain at 2 mg/kg, po; assay type: ADME, organism-based
[11] = Artificial membrane permeability by PAMPA method; assay type: ADME; details: read-out: permeability
[12] = target: Mitogen-activated protein kinase kinase kinase 9 (Homo sapiens) (UniProt P80192); test: Inhibition of MLK1 (unknown origin) at 1 uM by radioactivity-based enzymatic assay relative to control
[13] = target: Tyrosine-protein kinase JAK2 (Homo sapiens) (UniProt O60674); test: Inhibition of JAK2 (unknown origin) at 1 uM by radioactivity-based enzymatic assay relative to control
[14] = target: T2, Mitogen-activated protein kinase kinase kinase kinase 3 (Homo sapiens) (UniProt Q8IVH8); test: Inhibition of MAP4K3 (unknown origin) at 1 uM by radioactivity-based enzymatic assay relative to control
T2 sequence (whole entry): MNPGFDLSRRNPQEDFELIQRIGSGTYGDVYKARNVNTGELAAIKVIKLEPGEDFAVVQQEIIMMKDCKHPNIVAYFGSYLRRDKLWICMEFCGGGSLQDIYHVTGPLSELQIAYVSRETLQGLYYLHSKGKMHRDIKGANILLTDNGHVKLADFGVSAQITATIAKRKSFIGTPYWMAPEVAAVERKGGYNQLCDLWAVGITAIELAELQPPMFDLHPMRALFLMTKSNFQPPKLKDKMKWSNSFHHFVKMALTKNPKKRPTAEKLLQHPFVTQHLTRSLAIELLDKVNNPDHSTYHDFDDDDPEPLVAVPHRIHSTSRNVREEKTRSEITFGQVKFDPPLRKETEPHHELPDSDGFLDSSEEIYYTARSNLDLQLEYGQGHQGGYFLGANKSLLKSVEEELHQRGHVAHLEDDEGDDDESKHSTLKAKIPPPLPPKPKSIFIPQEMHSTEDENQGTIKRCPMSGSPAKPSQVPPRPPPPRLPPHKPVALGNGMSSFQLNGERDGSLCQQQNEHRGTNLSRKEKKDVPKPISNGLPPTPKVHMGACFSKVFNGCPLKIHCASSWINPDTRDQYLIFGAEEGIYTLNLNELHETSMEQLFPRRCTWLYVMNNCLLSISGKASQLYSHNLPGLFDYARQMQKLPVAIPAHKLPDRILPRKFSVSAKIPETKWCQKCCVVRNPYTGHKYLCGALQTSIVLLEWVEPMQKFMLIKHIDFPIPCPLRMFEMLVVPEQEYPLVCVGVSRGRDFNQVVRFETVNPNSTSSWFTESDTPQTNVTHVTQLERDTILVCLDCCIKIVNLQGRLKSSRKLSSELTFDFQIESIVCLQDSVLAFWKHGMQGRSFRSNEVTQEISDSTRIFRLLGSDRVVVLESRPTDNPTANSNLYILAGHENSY

[15] = target: T3, Interleukin-1 receptor-associated kinase 4 (Homo sapiens) (UniProt Q9NWZ3); test: Inhibition of IRAK4 (unknown origin) at 1 uM by radioactivity-based enzymatic assay relative to control
T3 sequence (whole entry): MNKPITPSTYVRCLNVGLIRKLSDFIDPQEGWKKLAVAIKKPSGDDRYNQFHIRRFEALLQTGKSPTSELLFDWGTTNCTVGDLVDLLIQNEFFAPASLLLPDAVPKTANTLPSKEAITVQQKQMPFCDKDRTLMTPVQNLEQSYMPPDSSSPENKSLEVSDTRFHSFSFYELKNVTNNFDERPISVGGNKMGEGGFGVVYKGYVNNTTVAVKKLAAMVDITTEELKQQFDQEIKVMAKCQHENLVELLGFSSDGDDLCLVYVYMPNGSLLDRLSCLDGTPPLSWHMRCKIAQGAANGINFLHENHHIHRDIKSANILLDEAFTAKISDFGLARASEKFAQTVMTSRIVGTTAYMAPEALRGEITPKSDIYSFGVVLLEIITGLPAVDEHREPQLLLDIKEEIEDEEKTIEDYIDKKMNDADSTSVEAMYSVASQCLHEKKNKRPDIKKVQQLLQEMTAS

[16] = target: Tyrosine-protein kinase SYK (Homo sapiens) (UniProt P43405); test: Inhibition of SYK (unknown origin) at 1 uM by radioactivity-based enzymatic assay relative to control

T1 sequence (Q5S007 whole entry, the tested form may be a part): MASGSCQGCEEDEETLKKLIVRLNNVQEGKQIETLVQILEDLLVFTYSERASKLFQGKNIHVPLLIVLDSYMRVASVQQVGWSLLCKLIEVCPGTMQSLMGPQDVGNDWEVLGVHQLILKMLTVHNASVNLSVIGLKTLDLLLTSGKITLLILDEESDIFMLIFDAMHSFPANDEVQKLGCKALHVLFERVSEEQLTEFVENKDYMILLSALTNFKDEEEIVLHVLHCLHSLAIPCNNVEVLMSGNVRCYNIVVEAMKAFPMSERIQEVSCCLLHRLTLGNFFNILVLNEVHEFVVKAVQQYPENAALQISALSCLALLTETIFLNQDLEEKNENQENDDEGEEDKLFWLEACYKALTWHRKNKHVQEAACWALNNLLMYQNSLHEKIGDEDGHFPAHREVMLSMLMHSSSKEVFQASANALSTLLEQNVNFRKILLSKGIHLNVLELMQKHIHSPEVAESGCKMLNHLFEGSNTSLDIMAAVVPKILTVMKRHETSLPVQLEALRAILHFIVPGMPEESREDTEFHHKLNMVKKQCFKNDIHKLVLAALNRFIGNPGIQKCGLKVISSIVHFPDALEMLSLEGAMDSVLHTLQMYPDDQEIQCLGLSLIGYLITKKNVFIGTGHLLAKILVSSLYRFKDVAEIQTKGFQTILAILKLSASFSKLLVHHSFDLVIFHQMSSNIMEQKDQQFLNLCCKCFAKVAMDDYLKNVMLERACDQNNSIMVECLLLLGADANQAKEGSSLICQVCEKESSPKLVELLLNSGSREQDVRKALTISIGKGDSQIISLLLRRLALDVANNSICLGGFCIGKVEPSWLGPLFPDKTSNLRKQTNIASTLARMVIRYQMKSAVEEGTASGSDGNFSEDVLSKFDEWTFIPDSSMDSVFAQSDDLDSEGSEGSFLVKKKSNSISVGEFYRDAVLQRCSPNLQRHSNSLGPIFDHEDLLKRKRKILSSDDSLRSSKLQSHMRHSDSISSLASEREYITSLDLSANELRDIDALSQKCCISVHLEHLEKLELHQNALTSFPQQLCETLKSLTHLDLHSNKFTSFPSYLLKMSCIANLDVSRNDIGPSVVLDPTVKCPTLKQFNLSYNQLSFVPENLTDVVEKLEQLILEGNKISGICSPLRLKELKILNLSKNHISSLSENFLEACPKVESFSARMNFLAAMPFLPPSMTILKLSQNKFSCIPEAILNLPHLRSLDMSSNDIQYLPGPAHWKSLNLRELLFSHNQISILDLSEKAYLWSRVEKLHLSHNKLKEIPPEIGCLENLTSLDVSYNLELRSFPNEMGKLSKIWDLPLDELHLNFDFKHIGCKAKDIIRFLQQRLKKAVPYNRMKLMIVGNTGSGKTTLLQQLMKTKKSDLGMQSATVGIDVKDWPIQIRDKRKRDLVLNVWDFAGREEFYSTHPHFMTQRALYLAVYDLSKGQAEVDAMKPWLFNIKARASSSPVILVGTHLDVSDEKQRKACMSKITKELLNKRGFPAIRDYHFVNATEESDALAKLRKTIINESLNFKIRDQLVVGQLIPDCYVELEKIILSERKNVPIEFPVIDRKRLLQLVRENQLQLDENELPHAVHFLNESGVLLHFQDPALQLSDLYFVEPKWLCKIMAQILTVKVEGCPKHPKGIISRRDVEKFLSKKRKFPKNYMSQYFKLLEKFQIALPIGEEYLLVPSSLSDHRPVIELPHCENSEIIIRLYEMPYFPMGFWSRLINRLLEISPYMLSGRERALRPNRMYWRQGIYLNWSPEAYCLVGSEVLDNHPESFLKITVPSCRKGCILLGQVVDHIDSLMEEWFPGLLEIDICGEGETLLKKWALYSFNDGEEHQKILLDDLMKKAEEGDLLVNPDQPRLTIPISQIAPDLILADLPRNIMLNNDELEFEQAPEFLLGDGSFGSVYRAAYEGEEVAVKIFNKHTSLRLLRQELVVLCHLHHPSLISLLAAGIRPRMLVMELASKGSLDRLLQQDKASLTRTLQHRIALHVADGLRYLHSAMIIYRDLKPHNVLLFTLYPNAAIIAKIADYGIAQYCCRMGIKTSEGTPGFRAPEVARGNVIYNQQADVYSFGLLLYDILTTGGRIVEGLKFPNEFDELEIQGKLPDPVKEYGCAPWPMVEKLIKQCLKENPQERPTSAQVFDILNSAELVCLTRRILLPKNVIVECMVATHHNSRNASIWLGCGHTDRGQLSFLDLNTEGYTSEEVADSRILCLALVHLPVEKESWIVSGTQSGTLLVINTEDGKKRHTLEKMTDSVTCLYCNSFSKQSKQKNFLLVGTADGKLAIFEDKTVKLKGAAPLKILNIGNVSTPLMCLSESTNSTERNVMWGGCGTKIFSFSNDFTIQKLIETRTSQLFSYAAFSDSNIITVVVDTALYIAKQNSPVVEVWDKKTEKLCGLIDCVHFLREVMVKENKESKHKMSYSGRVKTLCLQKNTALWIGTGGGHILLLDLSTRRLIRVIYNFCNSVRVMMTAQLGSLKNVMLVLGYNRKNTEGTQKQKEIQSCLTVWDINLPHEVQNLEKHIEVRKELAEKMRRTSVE
Mitogen-activated protein kinase kinase kinase 9 (Homo sapiens), sequence (P80192 whole entry, looked up): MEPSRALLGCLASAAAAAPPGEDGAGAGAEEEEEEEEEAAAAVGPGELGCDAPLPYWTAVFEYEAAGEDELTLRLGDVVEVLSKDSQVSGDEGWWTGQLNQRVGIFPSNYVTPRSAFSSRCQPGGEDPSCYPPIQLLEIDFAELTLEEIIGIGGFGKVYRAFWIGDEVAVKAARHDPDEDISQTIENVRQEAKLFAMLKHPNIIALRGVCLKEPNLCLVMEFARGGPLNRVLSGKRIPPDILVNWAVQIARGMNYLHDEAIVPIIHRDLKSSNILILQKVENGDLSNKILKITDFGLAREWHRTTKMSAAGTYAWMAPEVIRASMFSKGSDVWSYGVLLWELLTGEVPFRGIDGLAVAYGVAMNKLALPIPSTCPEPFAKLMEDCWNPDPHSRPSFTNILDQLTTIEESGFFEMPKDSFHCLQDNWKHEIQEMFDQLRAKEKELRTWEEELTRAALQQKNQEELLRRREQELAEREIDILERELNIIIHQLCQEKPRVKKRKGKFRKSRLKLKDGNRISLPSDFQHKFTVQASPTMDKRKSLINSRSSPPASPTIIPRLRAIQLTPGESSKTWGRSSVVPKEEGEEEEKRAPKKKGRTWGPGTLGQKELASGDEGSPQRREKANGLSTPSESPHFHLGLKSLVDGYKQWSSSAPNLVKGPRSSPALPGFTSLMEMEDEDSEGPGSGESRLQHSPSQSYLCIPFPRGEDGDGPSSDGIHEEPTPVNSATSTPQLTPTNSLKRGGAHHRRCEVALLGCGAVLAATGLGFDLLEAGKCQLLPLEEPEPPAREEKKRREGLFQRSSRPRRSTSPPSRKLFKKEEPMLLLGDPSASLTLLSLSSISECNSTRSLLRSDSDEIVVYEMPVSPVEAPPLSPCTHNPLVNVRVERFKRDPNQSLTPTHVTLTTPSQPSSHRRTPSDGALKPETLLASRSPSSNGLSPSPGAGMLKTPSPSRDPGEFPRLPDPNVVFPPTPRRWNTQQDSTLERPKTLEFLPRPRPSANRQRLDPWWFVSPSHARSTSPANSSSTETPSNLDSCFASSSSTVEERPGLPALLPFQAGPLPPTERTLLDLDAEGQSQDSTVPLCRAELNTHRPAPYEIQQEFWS
Tyrosine-protein kinase JAK2 (Homo sapiens), sequence (O60674 whole entry): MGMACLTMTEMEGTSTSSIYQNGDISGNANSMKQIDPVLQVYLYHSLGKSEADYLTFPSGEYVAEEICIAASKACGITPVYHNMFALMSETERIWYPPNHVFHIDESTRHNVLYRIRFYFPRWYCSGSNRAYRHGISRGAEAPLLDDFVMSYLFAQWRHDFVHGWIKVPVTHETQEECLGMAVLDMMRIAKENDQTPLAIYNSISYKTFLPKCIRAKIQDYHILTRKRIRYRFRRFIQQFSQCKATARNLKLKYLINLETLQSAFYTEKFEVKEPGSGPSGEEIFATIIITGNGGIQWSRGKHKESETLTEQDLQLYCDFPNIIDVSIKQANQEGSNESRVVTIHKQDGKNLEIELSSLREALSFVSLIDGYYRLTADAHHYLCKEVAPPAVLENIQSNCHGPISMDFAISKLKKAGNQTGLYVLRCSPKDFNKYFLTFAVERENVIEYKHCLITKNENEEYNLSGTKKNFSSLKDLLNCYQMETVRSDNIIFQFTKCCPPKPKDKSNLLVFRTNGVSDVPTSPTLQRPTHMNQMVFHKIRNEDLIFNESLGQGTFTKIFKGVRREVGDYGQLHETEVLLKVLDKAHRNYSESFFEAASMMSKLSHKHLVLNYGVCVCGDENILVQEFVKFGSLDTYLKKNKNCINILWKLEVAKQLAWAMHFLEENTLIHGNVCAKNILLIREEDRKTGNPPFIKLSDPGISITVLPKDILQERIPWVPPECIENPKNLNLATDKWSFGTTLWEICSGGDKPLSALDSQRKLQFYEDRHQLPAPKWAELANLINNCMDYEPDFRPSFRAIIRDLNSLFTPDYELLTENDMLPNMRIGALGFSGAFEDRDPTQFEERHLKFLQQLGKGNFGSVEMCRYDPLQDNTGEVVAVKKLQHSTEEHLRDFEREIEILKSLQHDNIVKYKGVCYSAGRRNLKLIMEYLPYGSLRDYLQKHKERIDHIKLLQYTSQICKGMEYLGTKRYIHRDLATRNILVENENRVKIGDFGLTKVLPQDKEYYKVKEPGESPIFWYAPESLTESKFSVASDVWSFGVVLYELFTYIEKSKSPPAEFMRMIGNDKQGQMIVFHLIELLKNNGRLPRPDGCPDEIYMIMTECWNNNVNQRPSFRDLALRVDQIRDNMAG

| Compound | IC50 [1] [µM] | IC50 [2] [µM] | CLH [3] [mL/min/g] | solubility at 4 h [4] [µg/mL] | logD [5] | also measured |
| --- | --- | --- | --- | --- | --- | --- |
| CCOc1nc(Nc2ccc(C(=O)N3CCN(C)CC3)cc2OC)nc2[nH]ccc12 | 0.0158 |  |  |  |  |  |
| CCOc1nc(Nc2ccc(C(=O)N3CCN4CCC[C@@H]4C3)cc2OC)nc2[nH]ccc12 |  |  | 2.5 | 300 (≈ 687 µM) | 4.9 | AUCt/dose [7]: 487 ng·h/g/mg/kg; AUCt/dose [8]: 246 ng·h/g/mg/kg; Kp [9]: 0.51; fraction unbound [10]: < 0.005 |
| CCOc1nc(Nc2ccc(C(=O)N3CCOC[C@H]3C)cc2OC)nc2[nH]ccc12 | 0.0158 | 0.0794 | 0.8 | 78.8 (≈ 192 µM) | 5.1 | Ratio [6]: 2.2 |
| CCOc1nc(Nc2ccc(C(=O)N3CCN(C)CC3)cc2N(C)C)nc2[nH]ccc12 | 0.2 | 3.16 |  |  |  |  |
| CCOc1nc(Nc2ccc(C(=O)N3CCN4CCC[C@H]4C3)cc2OC)nc2[nH]ccc12 |  |  | 3.2 | 309 (≈ 709 µM) | 4.9 |  |
| CCOc1nc(Nc2ccc(C(=O)N3CCOCC3)cc2OC(C)C)nc2[nH]ccc12 | 0.0126 | 0.631 |  |  |  |  |
| CCOc1nc(Nc2ccc(C(=O)N3C[C@@H](C)O[C@@H](C)C3)cc2OC)nc2[nH]ccc12 | 0.0631 | 0.2 | 1.5 | 4.4 (≈ 10.3 µM) | 5.7 |  |
| CCOc1nc(Nc2ccc(C(=O)NCC(C)(C)O)cc2OC)nc2[nH]ccc12 | 0.0126 | 0.126 | 0.8 | 25.5 (≈ 63.8 µM) | 4.1 | Ratio [6]: 3.8 |
| CCOc1nc(Nc2ccc(C(=O)N3CC4(COC4)C3)cc2OC)nc2[nH]ccc12 | 0.0631 | 0.158 | 1.1 | 6.2 (≈ 15.1 µM) | 4.3 |  |
| CCOc1nc(Nc2ccc(C(=O)N3CCN(C)CC3)cc2)nc2[nH]ccc12 | 0.0126 | 0.0794 |  |  |  |  |

Further lines, with some results ahead:

| IC50 [1] [µM] | IC50 [2] [µM] | CLH [3] [mL/min/g] | solubility at 4 h [4] [µg/mL] | logD [5] | Compound | also measured |
| --- | --- | --- | --- | --- | --- | --- |
| 0.00631 | 0.316 | 1.1 | 39.7 (≈ 96 µM) |  | CCOc1nc(Nc2ccc(C(=O)N3CCC(F)CC3)cc2OC)nc2[nH]ccc12 |  |
| 0.00631 | 0.0631 | < 0.777 | 621 (≈ 1380 µM) | 3 | CCOc1nc(Nc2ccc(C(=O)N3CCC4(CC3)CN(C)C4)cc2OC)nc2[nH]ccc12 | Ratio [6]: 5 |
| 0.0126 | 0.0501 |  | 8.6 (≈ 24.6 µM) | 2.8 | NC(=O)c1ccc(Nc2nc(NCC(F)(F)F)c3cc[nH]c3n2)cc1 | Papp [11]: 3.6 ×10⁻⁶ cm/s; inhibition [12]: > 50%; inhibition [13]: > 50%; inhibition [14]: > 50%; inhibition [15]: > 50%; inhibition [16]: > 50% |
| 0.0126 | 0.251 |  |  |  | CCOc1nc(Nc2ccc(C(=O)N3CCN(C)CC3)cc2Cl)nc2[nH]ccc12 |  |
| 0.00794 | 0.0631 |  | 1.7 (≈ 4.63 µM) | 3.9 | CCOc1nc(Nc2ccc(C(=O)N3CCOCC3)cc2)nc2[nH]ccc12 | Papp [11]: 51 ×10⁻⁶ cm/s; inhibition [12]: > 50%; inhibition [13]: > 50%; inhibition [14]: > 50%; inhibition [15]: > 50%; inhibition [16]: > 50% |
| 0.0126 | 0.158 |  |  |  | CCOc1nc(Nc2ccc(C(=O)N3CCN(C)CC3)cc2F)nc2[nH]ccc12 |  |
| 0.00794 | 0.1 | 1.4 | 154 (≈ 374 µM) | 5 | CCOc1nc(Nc2ccc(C(=O)N3CCOC[C@@H]3C)cc2OC)nc2[nH]ccc12 | Ratio [6]: 1.8 |
| < 0.000158 | 0.158 |  |  |  | CCOc1nc(Nc2ccc(C(=O)N3CCN(C)CC3)cc2OC(F)F)nc2[nH]ccc12 |  |
| 0.01 | 0.126 |  |  |  | CCOc1cc(C(=O)N2CCN(C)CC2)ccc1Nc1nc(OCC)c2cc[nH]c2n1 |  |

Source: ChEMBL document CHEMBL4715821, “Discovery of 4-ethoxy-7H-pyrrolo[2,3-d]pyrimidin-2-amines as potent, selective and orally bioavailable LRRK2 inhibitors” (Bioorg Med Chem Lett, 2018)
